The test concerns the target human FXR (NR1H4) (Homo sapiens (Human), UniProt Q96RI1). The test is described as follows: Human FXR (NR1H4) Assay (Gal4 promoter driven luciferase reporter, Indigo Bioscience kit).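 As to Efficacy (%): 100% equals the efficacy of CDCA; efficacy normalized to CDCA set as 100%.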 The class given is cell-based. The note with it: for EC50: Human FXR (NR1H4) Assay, potency ranges; for Emax: read-out: Efficacy (%). An excerpt:
ASSAYS Human FXR (NR1H4) Assay
Determination of a ligand mediated Gal4 promoter driven transactivation to quantify ligand binding mediated activation of FXR. FXR Reporter Assay kit purchased from Indigo Bioscience (Catalogue number: IB00601) to determine the potency and efficacy of compound developed by Enanta that can induce FXR activation. The principle application of this reporter assay system is to quantify functional activity of human FXR. The assay utilizes non-human mammalian cells, CHO (Chinese hamster ovary) cells engineered to express human NR1H4 protein (referred to as FXR). Reporter cells also incorporate the cDNA encoding beetle luciferase which catalyzes the substrates and yields photon emission. Luminescence intensity of the reaction is quantified using a plate-reading luminometer, Envision. Reporter Cells include the luciferase reporter gene functionally linked to an FXR responsive promoter. Thus, quantifying changes in luciferase expression in the treated reporter cells provides a sensitive surrogate measure of the changes in FXR activity. […] The assay is according to the manufacturer's instructions. In brief, the assay was performed in white, 96 well plates using final volume of 100 uL containing cells with different doses of compounds. Retrieve Reporter Cells from −80° C. storage. Perform a rapid thaw of the frozen cells by transferring a 10 ml volume of 37° C. cell recovery medium into the tube of frozen cells. Recap the tube of Reporter Cells and immediately place it in a 37° C. water bath for 5-10 minutes. Retrieve the tube of Reporter Cell Suspension from the water bath. Sanitize the outside surface of the tube with a 70% alcohol swab, and then transfer it into the cell culture hood. Dispense 90 μl of cell suspension into each well of the 96-well Assay Plate. Transfer the plate into 37° C. incubator, allowing the cells adherent to the bottom of the well. Dilute compounds in Dilution Plate (DP), and administrate to cells at Assay Plate (AP). DMSO content of the samples was kept at 0.2%. Cells were incubated for additional 22 hours before luciferase activities were measured. Thirty minutes before intending to quantify FXR activity, remove Detection Substrate and Detection Buffer from the refrigerator and place them in a low-light area so that they may equilibrate to room temperature. Remove the plate's lid and discard all media contents by ejecting it into an appropriate waste container. Gently tap the inverted plate onto a clean absorbent paper towel to remove residual droplets. Cells will remain tightly adhered to well bottoms. Add 100 μl of luciferase detection reagent to each well of the assay plate. Allow the assay plate to rest at room temperature for at least 5 minutes following the addition of LDR. Set the instrument (Envision) to perform a single 5 second “plate shake” prior to reading the first assay well. Read time may be 0.5 second (500 mSec) per well.
For orientation: A reporter such as luciferase makes a cellular process visible.

As usually defined, the EC50 is the concentration giving half of the maximal effect. High values mean a need for much substance, low ones an effect from little substance.

Chain of human FXR (NR1H4) (Q96RI1 whole entry, the tested form may be a part): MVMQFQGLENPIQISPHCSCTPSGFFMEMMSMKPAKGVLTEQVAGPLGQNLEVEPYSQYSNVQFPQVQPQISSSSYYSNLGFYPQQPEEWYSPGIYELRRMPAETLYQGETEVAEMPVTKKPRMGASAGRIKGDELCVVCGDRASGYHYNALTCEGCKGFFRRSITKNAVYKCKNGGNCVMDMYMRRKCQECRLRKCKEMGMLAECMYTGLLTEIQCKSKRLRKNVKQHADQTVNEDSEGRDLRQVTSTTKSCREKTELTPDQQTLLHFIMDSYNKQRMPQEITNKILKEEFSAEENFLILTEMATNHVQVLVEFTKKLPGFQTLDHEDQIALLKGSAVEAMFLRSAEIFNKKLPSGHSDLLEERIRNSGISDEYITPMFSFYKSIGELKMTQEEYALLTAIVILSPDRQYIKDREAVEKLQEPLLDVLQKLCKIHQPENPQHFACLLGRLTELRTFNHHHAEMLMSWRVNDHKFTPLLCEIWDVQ

With `CC[C@H]1[C@@H](O)[C@@H]2[C@H](CC[C@]3(C)[C@@H]([C@H](C)CCOC(=O)NCCN4CCOCC4)CC[C@@H]23)[C@@]2(C)CC[C@@H](O)C[C@@H]12` [Example 151], the concentration for a half-maximal effect (EC50) fell in the range of 100 to 1000 nM and the Emax came to 253%.

Regarding `CC[C@H]1[C@@H](O)[C@@H]2[C@H](CC[C@]3(C)[C@@H]([C@H](C)CCOC(=O)NS(=O)(=O)c4ccc(OC(C)C)cc4)CC[C@@H]23)[C@@]2(C)CC[C@@H](O)C[C@@H]12` [Example 100], the EC50 is less than 100 nM and the Emax is 316%.

In the case of `CC[C@H]1[C@@H](O)[C@@H]2[C@H](CC[C@]3(C)[C@@H]([C@H](C)CCOC(=O)NS(=O)(=O)c4ccc(-c5ccccc5)s4)CC[C@@H]23)[C@@]2(C)CC[C@@H](O)C[C@@H]12` [Example 64], the EC50 lay within 100 to 1000 nM and the Emax turned out to be 281%.

With `CC[C@H]1[C@@H](O)[C@@H]2[C@H](CC[C@]3(C)[C@@H]([C@H](C)COC(=O)NS(=O)(=O)c4ccc(Oc5ccccc5)cc4)CC[C@@H]23)[C@@]2(C)CC[C@@H](O)C[C@@H]12` [Example 31], the 50% effective concentration (EC50) was in the range of 100 to 1000 nM and the Emax is 207%.

With `CC[C@H]1[C@@H](O)[C@@H]2[C@H](CC[C@]3(C)[C@@H]([C@H](C)CCOC(=O)NS(=O)(=O)c4ccc(C(C)(C)C)s4)CC[C@@H]23)[C@@]2(C)CC[C@@H](O)C[C@@H]12` [Example 62], the EC50 was less than 100 nM and the Emax was found to be 299%.

With `CC[C@H]1[C@@H](O)[C@@H]2[C@H](CC[C@]3(C)[C@@H]([C@H](C)CCOC(=O)NS(=O)(=O)c4ccc(OC(F)(F)F)c(F)c4)CC[C@@H]23)[C@@]2(C)CC[C@@H](O)C[C@@H]12` [Example 104-k], the half-maximal effective concentration (EC50) is 100 to 1000 nM and the Emax worked out at 180%.

In the case of `CC[C@H]1[C@@H](O)[C@@H]2[C@H](CC[C@]3(C)[C@@H]([C@H](C)CCCOC(=O)NS(=O)(=O)c4ccc(-c5ccccc5)cc4)CC[C@@H]23)[C@@]2(C)CC[C@@H](O)C[C@@H]12` [Example 116], the EC50 fell in the range of 1000 to 10000 nM and the Emax amounted to 294%.

As for `CC[C@H]1[C@@H](O)[C@@H]2[C@H](CC[C@]3(C)[C@@H]([C@H](C)CCOC(=O)NCC(C)(C)C)CC[C@@H]23)[C@@]2(C)CC[C@@H](O)C[C@@H]12` [Example 190], the EC50 is 100 to 1000 nM and the Emax was 410%.

As to `CC[C@H]1[C@@H](O)[C@@H]2[C@H](CC[C@]3(C)[C@@H]([C@H](C)CCCOC(=O)N(C)OC)CC[C@@H]23)[C@@]2(C)CC[C@@H](O)C[C@@H]12` [Example 149], the EC50 lay in the range of 1000 to 10000 nM and the Emax was determined as 232%.

As to `CC[C@H]1[C@@H](O)[C@@H]2[C@H](CC[C@]3(C)[C@@H]([C@H](C)CCOC(=O)N4CCC(CO)(CO)CC4)CC[C@@H]23)[C@@]2(C)CC[C@@H](O)C[C@@H]12` [Example 218], the 50% effective concentration (EC50) was less than 100 nM and the Emax was 356%.

As to `CC[C@H]1[C@@H](O)[C@@H]2[C@H](CC[C@]3(C)[C@@H]([C@H](C)CCOC(=O)N4CCC4)CC[C@@H]23)[C@@]2(C)CC[C@@H](O)C[C@@H]12` [Example 162], the EC50 lay within 100 to 1000 nM and the Emax came out at 277%.

For the compound `CC[C@H]1[C@@H](O)[C@@H]2[C@H](CC[C@]3(C)[C@@H]([C@H](C)CCCOC(=O)N4CCC(N5CCCCC5)CC4)CC[C@@H]23)[C@@]2(C)CC[C@@H](O)C[C@@H]12` [Example 148], the half-maximal effective concentration (EC50) is 1000 to 10000 nM and the Emax worked out at 37%.

`CC[C@H]1[C@@H](O)[C@@H]2[C@H](CC[C@]3(C)[C@@H]([C@H](C)COC(=O)NS(=O)(=O)c4ccc(-n5cncn5)nc4)CC[C@@H]23)[C@@]2(C)CC[C@@H](O)C[C@@H]12` [Example 44-l]: the 50% effective concentration (EC50) was 100 to 1000 nM and the Emax turned out to be 165%.

On to `CC[C@H]1[C@@H](O)[C@@H]2[C@H](CC[C@]3(C)[C@@H]([C@H](C)CCCOC(=O)NC4CC4)CC[C@@H]23)[C@@]2(C)CC[C@@H](O)C[C@@H]12` [Example 122], for which the EC50 was 100 to 1000 nM and the Emax worked out at 204%.

On to `CC[C@H]1[C@@H](O)[C@@H]2[C@H](CC[C@]3(C)[C@@H]([C@H](C)CCOC(=O)NS(=O)(=O)N(C)C)CC[C@@H]23)[C@@]2(C)CC[C@@H](O)C[C@@H]12` [Example 50], for which the concentration giving a half-maximal response (EC50) is less than 100 nM and the Emax came to 291%.

As for `CC[C@H]1[C@@H](O)[C@@H]2[C@H](CC[C@]3(C)[C@@H]([C@H](C)COC(=O)NS(=O)(=O)N(C)C)CC[C@@H]23)[C@@]2(C)CC[C@@H](O)C[C@@H]12` [Example 7], the concentration for a half-maximal effect (EC50) is 1000 to 10000 nM and the Emax was 168%.

With `CC[C@H]1[C@@H](O)[C@@H]2[C@H](CC[C@]3(C)[C@@H]([C@H](C)COC(=O)NS(=O)(=O)c4cccc(OC(C)(C)C)c4)CC[C@@H]23)[C@@]2(C)CC[C@@H](O)C[C@@H]12` [Example 29], the EC50 is 100 to 1000 nM and the Emax stood at 186%.

With `CC[C@H]1[C@@H](O)[C@@H]2[C@H](CC[C@]3(C)[C@@H]([C@H](C)CCOC(=O)NC4CC4)CC[C@@H]23)[C@@]2(C)CC[C@@H](O)C[C@@H]12` [Example 123], the concentration for a half-maximal effect (EC50) was less than 100 nM and the Emax worked out at 379%.

Take `CC[C@H]1[C@@H](O)[C@@H]2[C@H](CC[C@]3(C)[C@@H]([C@H](C)CCOC(=O)N4CCC[C@@H](CO)C4)CC[C@@H]23)[C@@]2(C)CC[C@@H](O)C[C@@H]12` [Example 204]: the half-maximal effective concentration (EC50) is less than 100 nM and the Emax came to 310%.

With `CCCCS(=O)(=O)NC(=O)OCC[C@@H](C)[C@H]1CC[C@H]2[C@@H]3[C@H](O)[C@H](CC)[C@@H]4C[C@H](O)CC[C@]4(C)[C@H]3CC[C@]12C` [Example 57], the EC50 is less than 100 nM and the Emax was 392%.

For the compound `CC[C@H]1[C@@H](O)[C@@H]2[C@H](CC[C@]3(C)[C@@H]([C@H](C)COC(=O)NS(=O)(=O)c4ccc(-c5ccc(F)cc5)cc4)CC[C@@H]23)[C@@]2(C)CC[C@@H](O)C[C@@H]12` [Example 28], the half-maximal effective concentration (EC50) was less than 100 nM and the Emax came out at 194%.

`CC[C@H]1[C@@H](O)[C@@H]2[C@H](CC[C@]3(C)[C@@H]([C@H](C)CCOC(=O)NS(=O)(=O)c4ccc(OC(F)(F)F)cc4)CC[C@@H]23)[C@@]2(C)CC[C@@H](O)C[C@@H]12` [Example 53]: the EC50 was less than 100 nM and the Emax came to 411%.

As to `CC[C@H]1[C@@H](O)[C@@H]2[C@H](CC[C@]3(C)[C@@H]([C@H](C)CCOC(=O)N[C@H](C(=O)OC)C(C)C)CC[C@@H]23)[C@@]2(C)CC[C@@H](O)C[C@@H]12` [Example 154], the concentration giving a half-maximal response (EC50) lay within 100 to 1000 nM and the Emax was 138%.

`CC[C@H]1[C@@H](O)[C@@H]2[C@H](CC[C@]3(C)[C@@H]([C@H](C)CCOC(=O)NS(=O)(=O)c4ccccc4C(C)(C)C)CC[C@@H]23)[C@@]2(C)CC[C@@H](O)C[C@@H]12` [Example 85]: the EC50 is less than 100 nM and the Emax is 240%.

Regarding `CC[C@H]1[C@@H](O)[C@@H]2[C@H](CC[C@]3(C)[C@@H]([C@H](C)COC(=O)NS(=O)(=O)c4ccc(-c5ccc(OC(F)(F)F)cc5)cc4)CC[C@@H]23)[C@@]2(C)CC[C@@H](O)C[C@@H]12` [Example 33], the 50% effective concentration (EC50) is less than 100 nM and the Emax was found to be 266%.

For `CC[C@H]1[C@@H](O)[C@@H]2[C@H](CC[C@]3(C)[C@@H]([C@H](C)CCOC(=O)NS(=O)(=O)c4ccc5ccsc5c4)CC[C@@H]23)[C@@]2(C)CC[C@@H](O)C[C@@H]12` [Example 104-f], the EC50 was less than 100 nM and the Emax turned out to be 213%.

In the case of `CC[C@H]1[C@@H](O)[C@@H]2[C@H](CC[C@]3(C)[C@@H]([C@H](C)CCOC(=O)NCCc4c[nH]c5ccccc45)CC[C@@H]23)[C@@]2(C)CC[C@@H](O)C[C@@H]12` [Example 141], the EC50 is 100 to 1000 nM and the Emax amounted to 293%.

Regarding `CC[C@H]1[C@@H](O)[C@@H]2[C@H](CC[C@]3(C)[C@@H]([C@H](C)CCOC(=O)N4CC(=O)N(Cc5ccccc5)S4(=O)=O)CC[C@@H]23)[C@@]2(C)CC[C@@H](O)C[C@@H]12` [Example 109], the concentration for a half-maximal effect (EC50) was in the range of 1000 to 10000 nM and the Emax was 142%.
